# Target: T1, ribonuclease A (RNase A) (Bos taurus, UniProt P61823)
# T1 construct: gene RNASE1; native enzyme from bovine pancreas, commercial; mature secreted protein (signal peptide removed), no tag
# T1 sequence (P61823 27-150): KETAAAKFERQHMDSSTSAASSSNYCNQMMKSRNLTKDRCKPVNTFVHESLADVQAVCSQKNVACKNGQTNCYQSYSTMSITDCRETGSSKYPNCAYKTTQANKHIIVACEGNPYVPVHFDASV
# Experiment: isothermal titration calorimetry
# Type: binding
# Settings: 25 mM Bis-Tris, 25 mM KCl, pH 6.0, 25 °C; K per RNase A concentration (five concentrations, up to 0.6 mM); ligand from disodium salt; y-intercept of −RTlnK versus complex concentration (extrapolated t)
compound,measurement,value
O=c1ccn([C@@H]2O[C@H](CO)[C@@H](OP(=O)(O)O)[C@H]2O)c(=O)[nH]1 [3′‐UMP],ΔG°,-6.46 ± 0.03 kcal/mol
